Test results as given in patent publication US7893266B2, “Detection of cancer cells in vitro using sigma-2 receptor ligands as radiotracers” (Washington University, priority 2003, dated 2011).

Test system: EMT-6 mammary tumors
Assay: Biodistribution in EMT-6 BALB/C mice
Assay type: in vivo
Method: As used herein, the term “tumor:background ratio” (i.e., tumor:fat ratio, tumor:muscle ratio, tumor:lung ratio, tumor:blood ratio) refers to the % injected dose/g tissue of the radiotracer in the tumor divided by the % injected dose/g […] in the background tissue (i.e., fat, muscle, lung, blood).
B. Biodistribution Studies of ^11C analogs in Tumor-Bearing Mice. Biodistribution studies were conducted in mature Balb/c mice that were implanted with EMT-6 mammary tumors identified herein as EMT-6 BALB/C mice to create laboratory tumor-bearing mice. The mice were implanted in the scapular region seven days prior to the study. Animals were injected with 100-150 μCi of the ^11C-labeled radiotracer and the animals were sacrificed at 5, 30, and 60 min post-i.v. injection of the radiotracer.
A series of biodistribution studies in tumor-bearing mice were also conducted with [^76Br]8, [^76Br]6, [^125I]8i, and [^125I]6i.

COc1cc2c(cc1OC)CN(CCCCNC(=O)c1cc(Br)cc(OC)c1O[11CH3])CC2 [[^11C]6] was tested, and the “ratio Tumor:blood” value (5 min) was 0.40 ± 0.01, the “ratio Tumor:fat” value (5 min) was 1.82 ± 0.45 and the “ratio Tumor:heart” value (5 min) was 0.80 ± 0.07. The “ratio Tumor:lung” value (5 min) was 0.47 ± 0.04, the “ratio Tumor:muscle” value (5 min) was 1.46 ± 0.19 and the “ratio Tumor:blood” value (30 min) was 0.94 ± 0.05. The “ratio Tumor:fat” value (30 min) was 2.05 ± 0.57, the “ratio Tumor:heart” value (30 min) was 1.36 ± 0.12 and the “ratio Tumor:lung” value (30 min) was 0.69 ± 0.08. The “ratio Tumor:muscle” value (30 min) was 0.59 ± 0.05, the “ratio Tumor:blood” value (1 hour) was 1.10 ± 0.11 and the “ratio Tumor:fat” value (1 hour) was 2.77 ± 0.82. For the same compound, the “ratio Tumor:heart” value (1 hour) was 1.86 ± 0.64, the “ratio Tumor:lung” value (1 hour) was 0.79 ± 0.30 and the “ratio Tumor:muscle” value (1 hour) was 1.84 ± 0.25. For the same compound, the “% ID per gram blood” value (5 min) was 7.12 ± 1.01 % ID per gram, the “% ID per gram blood” value (30 min) was 0.99 ± 0.15 % ID per gram and the “% ID per gram blood” value (1 hour) was 0.45 ± 0.04 % ID per gram. The “% ID per gram brain” value (5 min) was 0.33 ± 0.09 % ID per gram, the “% ID per gram brain” value (30 min) was 0.10 ± 0.00 % ID per gram and the “% ID per gram brain” value (1 hour) was 0.03 ± 0.00 % ID per gram. For the same compound, the “% ID per gram fat” value (5 min) was 1.66 ± 0.41 % ID per gram, the “% ID per gram fat” value (30 min) was 0.46 ± 0.19 % ID per gram and the “% ID per gram fat” value (1 hour) was 0.20 ± 0.08 % ID per gram. For the same compound, the “% ID per gram heart” value (5 min) was 3.54 ± 0.31 % ID per gram, the “% ID per gram heart” value (30 min) was 0.68 ± 0.12 % ID per gram and the “% ID per gram heart” value (1 hour) was 0.29 ± 0.10 % ID per gram. The “% ID per gram kidney” value (5 min) was 19.48 ± 1.46 % ID per gram, the “% ID per gram kidney” value (30 min) was 2.57 ± 0.78 % ID per gram and the “% ID per gram kidney” value (1 hour) was 1.34 ± 0.19 % ID per gram. For the same compound, the “% ID per gram liver” value (5 min) was 25.02 ± 3.70 % ID per gram, the “% ID per gram liver” value (30 min) was 2.48 ± 0.52 % ID per gram and the “% ID per gram liver” value (1 hour) was 1.19 ± 0.17 % ID per gram. For the same compound, the “% ID per gram lung” value (5 min) was 6.01 ± 0.77 % ID per gram, the “% ID per gram lung” value (30 min) was 1.34 ± 0.23 % ID per gram and the “% ID per gram lung” value (1 hour) was 0.70 ± 0.26 % ID per gram. For the same compound, the “% ID per gram muscle” value (5 min) was 1.94 ± 0.13 % ID per gram, the “% ID per gram muscle” value (30 min) was 1.67 ± 0.14 % ID per gram and the “% ID per gram muscle” value (1 hour) was 0.26 ± 0.07 % ID per gram. The “% ID per gram tumor” value (5 min) was 2.82 ± 0.36 % ID per gram, the “% ID per gram tumor” value (30 min) was 0.92 ± 0.10 % ID per gram and the “% ID per gram tumor” value (1 hour) was 0.50 ± 0.09 % ID per gram.
With COc1cc2c(cc1OC)CN(CCNC(=O)c1cc(C)ccc1O[11CH3])CC2 [[^11C]9] the “% ID per gram blood” value (5 min) was 5.89 ± 0.29 % ID per gram, the “% ID per gram blood” value (30 min) was 2.62 ± 0.22 % ID per gram and the “% ID per gram blood” value (1 hour) was 1.98 ± 0.35 % ID per gram. The “% ID per gram brain” value (5 min) was 1.63 ± 0.30 % ID per gram, the “% ID per gram brain” value (30 min) was 0.11 ± 0.01 % ID per gram and the “% ID per gram brain” value (1 hour) was 0.10 ± 0.04 % ID per gram. The “% ID per gram fat” value (5 min) was 3.07 ± 0.40 % ID per gram, the “% ID per gram fat” value (30 min) was 0.38 ± 0.12 % ID per gram and the “% ID per gram fat” value (1 hour) was 0.26 ± 0.09 % ID per gram. For the same compound, the “% ID per gram heart” value (5 min) was 2.89 ± 0.36 % ID per gram, the “% ID per gram heart” value (30 min) was 0.76 ± 0.06 % ID per gram and the “% ID per gram heart” value (1 hour) was 0.76 ± 0.46 % ID per gram. For the same compound, the “% ID per gram kidney” value (5 min) was 44.07 ± 1.67 % ID per gram, the “% ID per gram kidney” value (30 min) was 2.77 ± 0.42 % ID per gram and the “% ID per gram kidney” value (1 hour) was 1.01 ± 0.12 % ID per gram. For the same compound, the “% ID per gram liver” value (5 min) was 18.49 ± 2.87 % ID per gram, the “% ID per gram liver” value (30 min) was 3.87 ± 0.67 % ID per gram and the “% ID per gram liver” value (1 hour) was 1.70 ± 0.23 % ID per gram. For the same compound, the “% ID per gram lung” value (5 min) was 5.69 ± 0.70 % ID per gram, the “% ID per gram lung” value (30 min) was 1.42 ± 0.15 % ID per gram and the “% ID per gram lung” value (1 hour) was 1.39 ± 0.67 % ID per gram. For the same compound, the “% ID per gram muscle” value (5 min) was 1.75 ± 0.21 % ID per gram, the “% ID per gram muscle” value (30 min) was 0.56 ± 0.19 % ID per gram and the “% ID per gram muscle” value (1 hour) was 0.41 ± 0.22 % ID per gram. The “% ID per gram tumor” value (5 min) was 3.10 ± 0.25 % ID per gram, the “% ID per gram tumor” value (30 min) was 1.08 ± 0.08 % ID per gram and the “% ID per gram tumor” value (1 hour) was 0.85 ± 0.14 % ID per gram.
COc1cc2c(cc1OC)CN(CCNC(=O)c1cc([125I])ccc1OC)CC2 [[^125I]8i] was tested, and the “ratio Tumor:blood” value (5 min) was 0.42 ± 0.03, the “ratio Tumor:fat” value (5 min) was 0.84 ± 0.06 and the “ratio Tumor:heart” value (5 min) was 1.04 ± 0.08. For the same compound, the “ratio Tumor:lung” value (5 min) was 0.50 ± 0.07, the “ratio Tumor:muscle” value (5 min) was 2.00 ± 0.37 and the “ratio Tumor:blood” value (30 min) was 0.57 ± 0.12. The “ratio Tumor:fat” value (30 min) was 1.49 ± 0.65, the “ratio Tumor:heart” value (30 min) was 1.44 ± 0.18 and the “ratio Tumor:lung” value (30 min) was 0.98 ± 0.16. For the same compound, the “ratio Tumor:muscle” value (30 min) was 2.06 ± 0.69, the “ratio Tumor:blood” value (1 hour) was 0.62 ± 0.09 and the “ratio Tumor:fat” value (1 hour) was 1.93 ± 1.87. For the same compound, the “ratio Tumor:heart” value (1 hour) was 1.81 ± 0.32, the “ratio Tumor:lung” value (1 hour) was 0.91 ± 0.24 and the “ratio Tumor:muscle” value (1 hour) was 2.14 ± 0.99. For the same compound, the “ratio Tumor:blood” value (2 hour) was 0.26 ± 0.08, the “ratio Tumor:fat” value (2 hour) was 2.44 ± 0.77 and the “ratio Tumor:heart” value (2 hour) was 1.00 ± 0.27. The “ratio Tumor:lung” value (2 hour) was 0.67 ± 0.14, the “ratio Tumor:muscle” value (2 hour) was 2.17 ± 0.23 and the “% ID per gram blood” value (5 min) was 6.90 ± 1.29 % ID per gram. The “% ID per gram blood” value (30 min) was 2.44 ± 0.65 % ID per gram, the “% ID per gram blood” value (1 hour) was 1.17 ± 0.29 % ID per gram and the “% ID per gram blood” value (2 hour) was 3.37 ± 1.23 % ID per gram. The “% ID per gram brain” value (5 min) was 1.42 ± 0.33 % ID per gram, the “% ID per gram brain” value (30 min) was 0.20 ± 0.06 % ID per gram and the “% ID per gram brain” value (1 hour) was 0.06 ± 0.02 % ID per gram. The “% ID per gram brain” value (2 hour) was 0.09 ± 0.03 % ID per gram, the “% ID per gram fat” value (5 min) was 3.46 ± 0.59 % ID per gram and the “% ID per gram fat” value (30 min) was 1.03 ± 0.44 % ID per gram. The “% ID per gram fat” value (1 hour) was 0.77 ± 0.66 % ID per gram, the “% ID per gram fat” value (2 hour) was 0.37 ± 0.13 % ID per gram and the “% ID per gram heart” value (5 min) was 2.79 ± 0.35 % ID per gram. For the same compound, the “% ID per gram heart” value (30 min) was 0.94 ± 0.19 % ID per gram, the “% ID per gram heart” value (1 hour) was 0.40 ± 0.02 % ID per gram and the “% ID per gram heart” value (2 hour) was 0.86 ± 0.26 % ID per gram. For the same compound, the “% ID per gram kidney” value (5 min) was 54.77 ± 8.42 % ID per gram, the “% ID per gram kidney” value (30 min) was 38.59 ± 2.05 % ID per gram and the “% ID per gram kidney” value (1 hour) was 18.07 ± 2.07 % ID per gram. For the same compound, the “% ID per gram kidney” value (2 hour) was 8.46 ± 1.26 % ID per gram, the “% ID per gram liver” value (5 min) was 41.37 ± 7.23 % ID per gram and the “% ID per gram liver” value (30 min) was 8.20 ± 1.05 % ID per gram. For the same compound, the “% ID per gram liver” value (1 hour) was 2.87 ± 0.34 % ID per gram, the “% ID per gram liver” value (2 hour) was 3.47 ± 1.05 % ID per gram and the “% ID per gram lung” value (5 min) was 5.95 ± 1.30 % ID per gram. The “% ID per gram lung” value (30 min) was 1.39 ± 0.29 % ID per gram, the “% ID per gram lung” value (1 hour) was 0.81 ± 0.20 % ID per gram and the “% ID per gram lung” value (2 hour) was 1.27 ± 0.37 % ID per gram. The “% ID per gram muscle” value (5 min) was 1.47 ± 0.20 % ID per gram, the “% ID per gram muscle” value (30 min) was 0.70 ± 0.25 % ID per gram and the “% ID per gram muscle” value (1 hour) was 0.37 ± 0.23 % ID per gram. For the same compound, the “% ID per gram muscle” value (2 hour) was 0.38 ± 0.06 % ID per gram, the “% ID per gram tumor” value (5 min) was 2.91 ± 0.40 % ID per gram and the “% ID per gram tumor” value (30 min) was 1.33 ± 0.13 % ID per gram. The “% ID per gram tumor” value (1 hour) was 0.71 ± 0.12 % ID per gram and the “% ID per gram tumor” value (2 hour) was 0.82 ± 0.09 % ID per gram.
